Assay results reported in ChEMBL document CHEMBL5696439 (Cancer Res, 2010).
Activity calls are given as the source filed them. The rule behind the calls is not given here.

Tests used:
[1] = molecular target: Dual specificity tyrosine-phosphorylation-regulated kinase 1B (Homo sapiens) (UniProt Q9Y463); test: Inhibition of recombinant human full-length GST-tagged DYRK1B expressed in insect cells at 2 uM using Ser/Thr 18 as substrate measured after 1 hr by Z'-LYTE assay relative to control; settings: Insect cell
BT-549 = test: Antiproliferative activity against human BT-549 cells assessed as cell growth inhibition incubated for 24 hrs by MTS assay; assay type: functional, cell-based; settings: BT-549, 24 h
MDA-MB-361 [2] = test: Inhibition of protein synthesis in human MDA-MB-361 cells at 1 micromol/L incubated for 3 hrs by [3H] methionine incorporation based scintillation counter analysis relative to control; assay type: functional; settings: MDA-MB-361, 3 h, dose 1 µmol/L
[3] = molecular target: Casein kinase II subunit alpha' (Homo sapiens) (UniProt P19784); test: Inhibition of recombinant human full-length GST-tagged CSNK2A2 expressed in insect cells at 2 uM using Ser/Thr 11 as substrate measured after 1 hr by Z'-LYTE assay relative to control; settings: Insect cell
[4] = molecular target: Serine/threonine-protein kinase mTOR (Homo sapiens, UniProt P42345); settings: HEK293, dose 0.1-1 nM, time 20.0 min
[5] = molecular target: Insulin-like growth factor 1 receptor (Homo sapiens) (UniProt P08069); test: Inhibition of recombinant human His-tagged IGF1R (960-1397 residues) expressed in baculovirus expression system at 2 uM using Tyr 01 as substrate measured after 1 hr by Z'-LYTE assay relative to control
[6] = molecular target: Mitogen-activated protein kinase 14 (Homo sapiens) (UniProt Q16539); test: Inhibition of recombinant human full length GST-tagged MAPK14 expressed in E. coli at 2 uM using Ser/Thr 04 as substrate measured after 1 hr by Z'-LYTE assay relative to control
[7] = molecular target: Serine/threonine-protein kinase ATR (Homo sapiens, UniProt Q13535); test: Inhibition of ATR (unknown origin) using glutathione S-transferase-p53 as substrate by DELFIA
MDA-MB-361 [8] = test: Antitumor activity against human MDA-MB-361 cells assessed as block the hypoxia-induced lactate production in low oxygen at 0.3 micromol/L incubated for 24 hrs; assay type: functional, cell-based; settings: dose 0.3 µmol/L
MDA-MB-361 [9] = test: Antiproliferative activity against human MDA-MB-361 cells assessed as cell growth inhibition incubated for 1 days by MTS assay; assay type: functional, cell-based; settings: MDA-MB-361, 24 h
MDA-MB-361 [10] = test: Induction of apoptosis in human MDA-MB-361 cells assessed as induction in cell death at 1 micromol/L incubated for 48 hrs by FACS analysis relative to control; assay type: functional; settings: dose 1 µmol/L, at 1 µM
HCT-116 = test: Antiproliferative activity against human HCT-116 cells assessed as cell growth inhibition incubated for 24 hrs by MTS assay; assay type: functional, cell-based; settings: HCT-116, 24 h
A498 [11] = test: cells; settings: Homo sapiens, A498, 24 h
Description: Antiproliferative activity against human A498 cells assessed as cell growth inhibition incubated for 1 days by MTS assay

A498 [12] = test: Antitumor activity against human A498 cells xenografted in female nude mouse model assessed as tumor regression at 50 mg/kg, po qd administered as 5 days on/2 days off regimen for 4 cycles; assay type: functional, organism-based; settings: time 28.0 day
[13] = molecular target: Serine/threonine-protein kinase 3 (Homo sapiens) (UniProt Q13188); test: Inhibition of recombinant human full length GST-tagged STK3 expressed in insect cells at 2 uM using Ser/Thr 07 as substrate measured after 1 hr by Z'-LYTE assay relative to control; settings: Insect cell
[14] = molecular target: Serine/threonine-protein kinase Nek4 (Homo sapiens) (UniProt P51957); test: Inhibition of recombinant human full length GST-tagged NEK4 expressed in insect cells at 2 uM using Ser/Thr 17 as substrate measured after 1 hr by Z'-LYTE assay relative to control; settings: Insect cell
[15] = test system: Tyrosine-protein kinase ABL1 (Homo sapiens), P00519 [G250E]; test: Inhibition of recombinant human full-length His-tagged ABL1 G250E mutant expressed in insect cells at 2 uM using Tyr 02 as substrate measured after 1 hr by Z'-LYTE assay relative to control; settings: Insect cell
[16] = molecular target: Serine/threonine-protein kinase Nek7 (Homo sapiens) (UniProt Q8TDX7); test: Inhibition of recombinant human His-tagged NEK7 (8-313 residues) expressed in insect cells at 2 uM using Ser/Thr 22 as substrate measured after 1 hr by Z'-LYTE assay relative to control; settings: Insect cell
[17] = molecular target: Serine/threonine-protein kinase Chk2 (Homo sapiens) (UniProt O96017); test: Inhibition of recombinant human full-length His-tagged CHEK2 expressed in baculovirus expression system at 2 uM using Ser/Thr 07 as substrate measured after 1 hr by Z'-LYTE assay relative to control
MDA-MB-361 [18] = test: Antiproliferative activity against human MDA-MB-361 cells assessed as cell growth inhibition incubated for 2 days by MTS assay; assay type: functional, cell-based; settings: MDA-MB-361, 48 h
[19] = molecular target: Tyrosine-protein kinase Lyn (Homo sapiens) (UniProt P07948); test: Inhibition of recombinant human full length GST-tagged LYN A expressed in baculovirus expression system at 2 uM using Tyr 02 as substrate measured after 1 hr by Z'-LYTE assay relative to control
[20] = molecular target: Serine/threonine-protein kinase DCLK2 (Homo sapiens) (UniProt Q8N568); test: Inhibition of recombinant human full-length GST-tagged DCAMKL2 expressed in baculovirus expression system at 2 uM using Ser/Thr 17 as substrate measured after 1 hr by Z'-LYTE assay relative to control
[21] = molecular target: Tyrosine-protein kinase HCK (Homo sapiens) (UniProt P08631); test: Inhibition of recombinant human full-length GST-tagged HCK expressed in insect cells at 2 uM using Tyr 02 as substrate measured after 1 hr by Z'-LYTE assay relative to control; settings: Insect cell
[22] = molecular target: Casein kinase I isoform epsilon (Homo sapiens) (UniProt P49674); test: Inhibition of recombinant human full-length His-tagged CSNK1E expressed in insect cells at 2 uM using Ser/Thr 11 as substrate measured after 1 hr by Z'-LYTE assay relative to control; settings: Insect cell
[23] = test system: Mast/stem cell growth factor receptor Kit (Homo sapiens), P10721 [T670I]; test: Inhibition of recombinant human His-tagged KIT T670I mutant (544-976 residues) expressed in insect cells at 2 uM using […] as substrate measured after 1 hr by Z'-LYTE assay relative to control
[24] = molecular target: Ephrin type-B receptor 3 (Homo sapiens) (UniProt P54753); test: Inhibition of recombinant human GST-tagged EPHB3 (623-907 residues) expressed in insect cells at 2 uM using Tyr 02 as substrate measured after 1 hr by Z'-LYTE assay relative to control; settings: Insect cell
[25] = molecular target: Protein kinase C theta type (Homo sapiens) (UniProt Q04759); test: Inhibition of recombinant human PRKCQ at 2 uM using Ser/Thr 07 as substrate measured after 1 hr by Z'-LYTE assay relative to control
Chain of Protein kinase C theta type (Homo sapiens) (Q04759 whole entry, looked up): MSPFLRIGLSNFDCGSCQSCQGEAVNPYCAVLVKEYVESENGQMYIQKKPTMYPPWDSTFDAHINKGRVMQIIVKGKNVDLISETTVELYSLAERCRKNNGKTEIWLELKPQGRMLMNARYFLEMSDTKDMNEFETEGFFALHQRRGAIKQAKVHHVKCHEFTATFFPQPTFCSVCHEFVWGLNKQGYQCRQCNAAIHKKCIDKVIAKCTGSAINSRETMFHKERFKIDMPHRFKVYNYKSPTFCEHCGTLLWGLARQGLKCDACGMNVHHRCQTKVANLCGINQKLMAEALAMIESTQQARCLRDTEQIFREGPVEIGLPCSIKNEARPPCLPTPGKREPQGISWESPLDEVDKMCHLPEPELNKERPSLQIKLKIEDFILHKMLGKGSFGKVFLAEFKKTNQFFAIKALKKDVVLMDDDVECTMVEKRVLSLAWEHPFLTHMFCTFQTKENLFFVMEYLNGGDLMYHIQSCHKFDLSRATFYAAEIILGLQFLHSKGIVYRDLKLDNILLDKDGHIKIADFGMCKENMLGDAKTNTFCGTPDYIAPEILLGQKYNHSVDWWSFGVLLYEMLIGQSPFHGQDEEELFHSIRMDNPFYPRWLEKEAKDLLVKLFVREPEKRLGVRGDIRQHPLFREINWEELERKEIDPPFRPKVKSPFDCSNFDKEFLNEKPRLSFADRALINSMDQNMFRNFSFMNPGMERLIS

Chain of Tyrosine-protein kinase Lyn (Homo sapiens) (P07948 2-512 limits assumed): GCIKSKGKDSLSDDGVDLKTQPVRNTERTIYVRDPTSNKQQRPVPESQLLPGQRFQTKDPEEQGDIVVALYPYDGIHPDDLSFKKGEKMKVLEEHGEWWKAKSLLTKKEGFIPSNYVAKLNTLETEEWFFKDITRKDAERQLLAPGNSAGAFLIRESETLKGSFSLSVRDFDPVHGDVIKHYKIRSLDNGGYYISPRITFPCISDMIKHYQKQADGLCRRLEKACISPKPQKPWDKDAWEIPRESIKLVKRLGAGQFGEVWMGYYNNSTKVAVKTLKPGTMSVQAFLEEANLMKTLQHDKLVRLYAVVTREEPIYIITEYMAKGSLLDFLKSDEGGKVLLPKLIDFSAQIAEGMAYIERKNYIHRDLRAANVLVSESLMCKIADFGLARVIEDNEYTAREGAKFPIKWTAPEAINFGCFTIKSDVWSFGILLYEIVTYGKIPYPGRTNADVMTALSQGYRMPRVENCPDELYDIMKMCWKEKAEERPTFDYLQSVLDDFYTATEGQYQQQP
Chain of Serine/threonine-protein kinase DCLK2 (Homo sapiens) (Q8N568 whole entry): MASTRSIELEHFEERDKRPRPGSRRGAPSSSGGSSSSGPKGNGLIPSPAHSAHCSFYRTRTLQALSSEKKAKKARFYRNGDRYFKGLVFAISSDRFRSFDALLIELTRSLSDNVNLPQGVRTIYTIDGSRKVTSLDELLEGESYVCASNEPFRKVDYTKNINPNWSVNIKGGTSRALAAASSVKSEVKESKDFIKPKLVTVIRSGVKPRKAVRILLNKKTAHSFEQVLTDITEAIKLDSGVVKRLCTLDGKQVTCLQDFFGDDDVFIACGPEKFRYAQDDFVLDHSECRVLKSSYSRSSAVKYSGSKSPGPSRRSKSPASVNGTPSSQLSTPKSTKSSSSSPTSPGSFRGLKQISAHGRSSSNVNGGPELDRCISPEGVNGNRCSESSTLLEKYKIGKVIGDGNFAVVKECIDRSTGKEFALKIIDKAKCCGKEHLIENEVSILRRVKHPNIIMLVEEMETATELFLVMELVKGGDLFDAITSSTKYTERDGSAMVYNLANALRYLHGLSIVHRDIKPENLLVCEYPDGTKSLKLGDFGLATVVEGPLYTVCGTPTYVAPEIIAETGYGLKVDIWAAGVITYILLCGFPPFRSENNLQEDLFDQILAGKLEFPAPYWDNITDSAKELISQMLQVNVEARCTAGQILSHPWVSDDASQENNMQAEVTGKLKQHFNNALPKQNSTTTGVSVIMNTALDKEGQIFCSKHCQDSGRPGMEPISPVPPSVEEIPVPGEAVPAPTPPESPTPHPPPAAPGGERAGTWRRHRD
Chain of Serine/threonine-protein kinase Nek4 (Homo sapiens) (P51957 whole entry, looked up): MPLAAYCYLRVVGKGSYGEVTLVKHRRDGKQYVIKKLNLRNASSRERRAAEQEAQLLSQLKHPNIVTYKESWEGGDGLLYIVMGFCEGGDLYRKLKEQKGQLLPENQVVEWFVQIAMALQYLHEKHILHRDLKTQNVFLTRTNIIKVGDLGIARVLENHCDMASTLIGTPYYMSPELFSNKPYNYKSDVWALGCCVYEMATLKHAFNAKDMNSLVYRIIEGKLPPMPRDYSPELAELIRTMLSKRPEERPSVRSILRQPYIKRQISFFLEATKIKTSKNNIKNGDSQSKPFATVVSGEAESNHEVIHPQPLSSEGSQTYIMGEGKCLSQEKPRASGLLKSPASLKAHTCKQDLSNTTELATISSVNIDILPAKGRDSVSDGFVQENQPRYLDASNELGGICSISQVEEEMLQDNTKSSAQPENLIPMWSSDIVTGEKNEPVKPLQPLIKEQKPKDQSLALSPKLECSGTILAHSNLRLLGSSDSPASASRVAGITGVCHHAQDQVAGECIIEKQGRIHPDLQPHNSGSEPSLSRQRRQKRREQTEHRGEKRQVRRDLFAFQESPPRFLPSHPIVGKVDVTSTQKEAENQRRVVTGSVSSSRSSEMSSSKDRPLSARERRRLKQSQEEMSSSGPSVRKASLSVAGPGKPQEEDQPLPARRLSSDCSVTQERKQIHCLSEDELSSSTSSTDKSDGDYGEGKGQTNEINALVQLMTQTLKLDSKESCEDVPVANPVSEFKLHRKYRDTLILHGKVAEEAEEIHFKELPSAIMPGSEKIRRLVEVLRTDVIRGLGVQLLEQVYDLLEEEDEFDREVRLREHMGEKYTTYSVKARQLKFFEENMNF
Chain of Serine/threonine-protein kinase Chk2 (Homo sapiens) (O96017 whole entry): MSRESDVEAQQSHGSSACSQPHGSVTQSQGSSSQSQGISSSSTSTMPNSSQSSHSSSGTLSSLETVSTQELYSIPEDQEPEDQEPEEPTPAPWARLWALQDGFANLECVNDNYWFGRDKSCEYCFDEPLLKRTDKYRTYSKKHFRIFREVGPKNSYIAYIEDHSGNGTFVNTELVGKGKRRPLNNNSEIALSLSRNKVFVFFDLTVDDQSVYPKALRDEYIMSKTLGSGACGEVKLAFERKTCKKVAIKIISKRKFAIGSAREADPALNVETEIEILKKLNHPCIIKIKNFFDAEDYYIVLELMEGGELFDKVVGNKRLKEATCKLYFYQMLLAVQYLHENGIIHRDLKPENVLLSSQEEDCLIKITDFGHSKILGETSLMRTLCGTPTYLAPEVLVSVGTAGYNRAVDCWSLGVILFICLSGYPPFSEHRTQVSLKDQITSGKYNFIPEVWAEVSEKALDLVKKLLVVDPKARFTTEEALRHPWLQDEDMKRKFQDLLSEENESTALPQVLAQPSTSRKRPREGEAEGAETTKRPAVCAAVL
Chain of Mitogen-activated protein kinase 14 (Homo sapiens) (Q16539 whole entry): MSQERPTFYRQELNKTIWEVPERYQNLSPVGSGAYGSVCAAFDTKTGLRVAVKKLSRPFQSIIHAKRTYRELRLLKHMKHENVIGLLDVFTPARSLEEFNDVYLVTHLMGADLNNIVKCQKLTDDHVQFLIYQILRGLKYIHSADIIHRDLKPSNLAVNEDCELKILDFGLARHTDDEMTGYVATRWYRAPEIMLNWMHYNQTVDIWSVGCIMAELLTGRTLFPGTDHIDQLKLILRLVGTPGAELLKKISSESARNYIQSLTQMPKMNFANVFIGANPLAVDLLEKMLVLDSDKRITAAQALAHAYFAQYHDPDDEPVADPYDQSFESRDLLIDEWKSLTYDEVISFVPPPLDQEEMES
Chain of Tyrosine-protein kinase HCK (Homo sapiens) (P08631 2-526 limits assumed): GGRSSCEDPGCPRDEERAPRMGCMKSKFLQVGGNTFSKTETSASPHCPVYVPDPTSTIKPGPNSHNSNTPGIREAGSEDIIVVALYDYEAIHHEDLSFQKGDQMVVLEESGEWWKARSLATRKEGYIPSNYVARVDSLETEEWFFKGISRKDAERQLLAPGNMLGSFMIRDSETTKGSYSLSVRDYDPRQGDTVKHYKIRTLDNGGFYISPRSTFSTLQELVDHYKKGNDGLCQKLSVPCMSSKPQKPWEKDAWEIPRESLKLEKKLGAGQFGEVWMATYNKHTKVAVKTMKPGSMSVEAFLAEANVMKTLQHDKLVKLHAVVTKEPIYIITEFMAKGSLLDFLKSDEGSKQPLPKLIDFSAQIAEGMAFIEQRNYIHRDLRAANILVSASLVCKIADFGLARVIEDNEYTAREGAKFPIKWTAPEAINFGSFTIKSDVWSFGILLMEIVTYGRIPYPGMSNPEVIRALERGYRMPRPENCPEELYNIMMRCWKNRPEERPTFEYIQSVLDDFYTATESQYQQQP
Chain of Casein kinase II subunit alpha' (Homo sapiens) (P19784 whole entry, looked up): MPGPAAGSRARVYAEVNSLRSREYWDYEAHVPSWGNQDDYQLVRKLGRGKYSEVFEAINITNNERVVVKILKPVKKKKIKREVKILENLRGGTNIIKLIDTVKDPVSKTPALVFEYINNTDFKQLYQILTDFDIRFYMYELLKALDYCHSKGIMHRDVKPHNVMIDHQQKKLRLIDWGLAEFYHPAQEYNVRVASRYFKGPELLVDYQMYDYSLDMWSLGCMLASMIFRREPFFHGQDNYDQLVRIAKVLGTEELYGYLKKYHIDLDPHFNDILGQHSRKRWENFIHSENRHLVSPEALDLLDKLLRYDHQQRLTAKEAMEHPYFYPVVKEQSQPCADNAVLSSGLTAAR
Chain of Casein kinase I isoform epsilon (Homo sapiens) (P49674 whole entry, looked up, the tested form may be a part, canonical isoform): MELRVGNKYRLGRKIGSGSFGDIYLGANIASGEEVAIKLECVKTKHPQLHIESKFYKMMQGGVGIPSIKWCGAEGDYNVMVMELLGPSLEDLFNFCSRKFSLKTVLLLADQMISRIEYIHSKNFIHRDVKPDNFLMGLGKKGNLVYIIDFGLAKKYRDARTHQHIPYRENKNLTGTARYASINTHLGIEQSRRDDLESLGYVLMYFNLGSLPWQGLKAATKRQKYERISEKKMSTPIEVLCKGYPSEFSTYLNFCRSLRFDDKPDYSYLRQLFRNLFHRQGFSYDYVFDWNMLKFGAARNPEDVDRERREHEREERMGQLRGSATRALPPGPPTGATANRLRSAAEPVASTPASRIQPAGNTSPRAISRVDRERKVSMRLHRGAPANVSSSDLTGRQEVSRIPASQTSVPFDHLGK

CNC(=O)Nc1ccc(-c2nc(N3CC4CCC(C3)O4)c3cnn(C4CCC5(CC4)OCCO5)c3n2)cc1
inhibition [1]: 2%
IC50 (BT-549): 37 nM
inhibition at 1 µM (MDA-MB-361 [2]): ~50%
inhibition [3]: 3%
inhibition [4]: Active
inhibition [5]: 1%
inhibition [6]: 11%
IC50 [7]: > 10000 nM
Activity (MDA-MB-361 [8]): Active
IC50 (MDA-MB-361 [9]): 20000 nM
Activity (MDA-MB-361 [10]): 47%
IC50 (HCT-116): 380 nM
IC50 (A498 [11]): > 20000 nM
Activity (A498 [12]): Active
inhibition [13]: 0%
inhibition [14]: 7%
inhibition [15]: 3%
inhibition [16]: -3%
inhibition [17]: 3%
IC50 (MDA-MB-361 [18]): 50 nM
inhibition [19]: 7%
inhibition [20]: 2%
inhibition [21]: 5%
inhibition [22]: 4%
inhibition [23]: 7%
inhibition [24]: 3%
inhibition [25]: 5%
